According to ChEMBL document CHEMBL1148607, “A minimalist design approach to antimicrobial agents based on a thionin template” (J Med Chem, 2006):
Non-standard residues stand in square brackets, D forms with d. Residues, ends and D or L forms follow the SMILES beside them. GABA = NCCCC(=O)O

Legend:
Type in all cases: functional, organism-based
[1] = test system: Clavibacter michiganensis; assay: Antibacterial activity against Clavibacter michiganensis
Sinorhizobium meliloti = assay: Antibacterial activity against Rhizobium meliloti
Xanthomonas campestris = assay: Antibacterial activity against Xanthomonas campestris
Botrytis cinerea = assay: Antifungal activity against Botrytis cinerea
[2] = test system: Plectosphaerella cucumerina; assay: Antifungal activity against Plectosphaerella cucumerina

EC50 [1]	EC50 (Sinorhizobium meliloti)	EC50 (Xanthomonas campestris)	EC50 (Botrytis cinerea)	EC50 [2]	Compound
5.13 µM	> 50 µM	> 50 µM	4.1 µM	15.7 µM	CC[C@H](C)[C@H](NC(=O)[C@H](CCC(=O)O)NC(=O)[C@@H](N)CCCN=C(N)N)C(=O)NCCCC(=O)N[C@@H](C)C(=O)N[C@@H](CCCCN)C(=O)N[C@@H](CCCCN)C(=O)NCCCC(=O)N[C@@H](CCCN=C(N)N)C(=O)O (H-REI[GABA]AKK[GABA]R-OH)
3.27 µM	> 50 µM	> 50 µM	1.6 µM	3.97 µM	CC(C)C[C@H](NC(=O)[C@H](CCCN=C(N)N)NC(=O)CCCNC(=O)[C@@H](NC(=O)[C@H](CC(N)=O)NC(=O)[C@H](Cc1ccc(O)cc1)NC(=O)CCCNC(=O)[C@H](CC(N)=O)NC(=O)[C@H](CCCN=C(N)N)NC(=O)[C@H](C)NC(=O)[C@H](Cc1c[nH]c2ccccc12)NC(=O)[C@@H](N)[C@@H](C)O)C(C)C)C(=O)N1CCC[C@H]1C(=O)O (H-TWARN[GABA]YNV[GABA]RLP-OH)
0.03 µM	2.07 µM	1.03 µM	0.08 µM	0.16 µM	H-THRTRPALAARGASNCYSTYRASNVALCYSARGLEPRARGGLIIECYSALALYSLYSCYS-OH (cysteines drawn unpaired)
